Assay results published in PMC5874133 (Science immunology, 2018).
Ends that are not written are not given here.

What was measured:
[1] = tested on: D222D clone 2 or a MelanA26–35-reactive clone vs. cognate peptide-pulsed LCLs; experiment: inhibition of lysis of cognate peptide-pulsed LCLs by CD8^+ T-cell clones; format: cell-based, human; conditions: D222D clone 2 or MelanA26–35-reactive clone; 4 h, E/T 1/1; triplicate; Fig. 1F
[2] = tested on: ZnT8_186–194-reactive CD8^+ T-cell clones; experiment: effect on MMr staining of ZnT8_186–194-reactive CD8^+ T-cell clones; format: cell-based, human; conditions: normalized MMr fluorescence intensities between clones; Fig. 2B
[3] = molecular target: recombinant HLA-A2 molecules (Homo sapiens, UniProt P04439, D140Y/D185E/D98H/E176V/E277Q/G131W/G231S/I119V/I121R/I166T/I218V/L300P/L318F/N151K/N90K/P208A/P217A/Q86G/Q94H/R138H/R169H/T345S); experiment: peptide binding to recombinant HLA-A2
[4] = tested on: ZnT8_186–194-reactive CD8^+ T-cell clone H017N; format: cell-based, human; conditions: peptide-pulsed LCLs, 0.1 µM, 6 h, percent cytokine^+ cells, two experiments, p=0.008, Fig. 7E

Row | Compound | inhibition of lytic activity [1] | Kd [3] [nM] | also measured
1 | C[C@H]1CCC/C=C/[C@@H]2C[C@H](O)C[C@H]2[C@H](O)/C=C/C(=O)O1 [brefeldin A] | marginally |  | 
2 | C/C=C/[C@H]1O[C@@](O)([C@@H](C)[C@H](O)[C@H](C)[C@H]2OC(=O)/C(OC)=C/C(C)=C/[C@@H](C)[C@@H](O)[C@@H](CC)[C@@H](O)[C@H](C)C/C(C)=C/C=C/[C@@H]2OC)C[C@@H](O[C@H]2C[C@@H](O)[C@H](OC(N)=O)[C@@H](C)O2)[C@@H]1C [concanamycin A] | inhibited significantly |  | 
3 | Cc1nc(Nc2ncc(C(=O)Nc3c(C)cccc3Cl)s2)cc(N2CCN(CCO)CC2)n1 [dasatinib] |  |  | effect on variability of MMr fluorescence intensity [2]: reduced variability
4 | AVAANIVLTV [ZnT8_185–194] |  | 207 | 
5 | KAANIVLTV [B. stercoris mimotope] |  |  | agonist potency relative to native ZnT8_186–194 peptide [4]: stronger agonist potency
6 | VAANIVLTV [ZnT8_186–194] |  | 15 | 
